Measured values published in US6683060B2, “Matrix metalloproteinase and tumor necrosis factor inhibitors” (Advanced Gene Technology Corp., priority 2002, dated 2004).
pIC50: −log10 of the molar value. Read-outs that look alike come from different tables or passages of the source.

Key:
[1] = biological target: TNFα binding to TNFα-RI (Homo sapiens, UniProt P01375+P19438); experiment: Inhibition of binding of biotinylated TNFα to TNFα-RI on coated microtiter plate
Procedure: 50 μl TNFα-RI at a concentration of 0.25 μg/ml was coated onto each well of a 96-well C-bottom microtiter plate (Nunc) in a 50 mM carbonate buffer (pH 9.5) at 4° C. overnight. The plate was washed 3 times with 200 μl TBST solution composed of 50 mM Tris.HCl (pH 7.35) containing 0.15 M NaCl and 0.05% Tween 20 to remove excess TNFα-RI. 200 μl/well of 0.5% BSA in PBS was added to each plate for blocking of the TNFα-RI. The reaction was carried out at 37° C. for 2 hours followed by washing 4 times with TBST to remove excess BSA.
Compound 1 was serially diluted in TBST solution. Biotinylated TNFα with a concentration of 0.5 μg/ml was mixed with Compound 1 solution in a volume ratio of 1:1. The reaction was allowed to proceed for 30 minutes at 37° C. with shaking at 500 rpm for allowing mixing. The mixtures were then added to the TNFα-RI coated plate, 50 μl for each well. The plate was then incubated at 37° C. for 2 hours with shaking again at 500 rpm, for competitive binding of the biotinylated TNFα and Compound 1.
Followed by washing 4 times with TBST, Extravidin-alkaline phosphatase (Sigma) diluted in TBST (1/5,000) was added to the plate, 50 μl/well. The plate was further incubated at 37° C. for 2 hours and then washed 4 times with TBST. […] After a 30-minute incubation at room temperature, absorbance at the wavelength of 405 nm was measured. […]

[2] = test system: ES-2 cells; experiment: Invasive/metastatic potential of cancer cells, Boyden chemotaxis assay chambers; format: cell-based, human; conditions: 18-hour incubation
Procedure: (§1) ES-2 is a human ovarian carcinoma. It was maintained in a modified McCoy's 5A medium (Gibco) and supplemented with 10% FBS (fetal bovine serum).
(§2) In this method, Boyden chemotaxis assay chambers (Costar Transwell plates) were used. Each Boyden chemotaxis assay chamber included a top chamber having a filter as the bottom side of the top chamber and a bottom well surrounding the top chamber. The bottom side of the top chamber used here was an 8 μm-pore polycarbonate filter.
0.35 ml of a medium with complete nutrition supplements as a chemo-attractant was added to each bottom well. Cancer cells (2×10^5 in 50 μl) were then plated on the filters in each of the top chambers. Compound 1 or uridine was diluted in the serum-free medium to 0.536 mg/ml and then was added to the top chambers, with the volume of 50 μl/chamber. The control tests were performed with 2 μM paclitaxel (positive control) or with medium only (negative control) in the top chambers.
After an 18-hour incubation, the cells in the top chambers were carefully emptied with sterile cotton buds. 100 μl XTT reagent (1 mg/ml) was added to each of the bottom wells. After incubating for 4 hours, absorbance (O.D.) was measured at 450 nm with the reference wavelength at 690 nm. The ratio of the OD from the bottom wells to that of the OD from the bottom wells of the control tests was taken as the invasive potential. Results presented are from three different independent experiments.

[3] = test system: ES-2, COLO205, PC-3, A375, and A549 cell lines; experiment: Proliferation/cytotoxicity assay on cancer cell lines (XTT assay); format: cell-based, human; conditions: 72 hours exposure, five cancer cell lines; for cellular viability (XTT assay): serially two-fold diluted from 0.258 mg/ml, data not shown
Text: Five cancer-derived cell lines obtained from the American Type Culture Collection (ATCC) were used for the following proliferation/cytotoxicity assay. These cell lines are listed as follow:
as §1
(§3) COLO205 is a human colon cancer-derived cell line. It was maintained in a RPMI 1640 medium (Hyclone), and supplemented with 10% heat-inactivated FBS.
(§4) PC-3 is a human prostate cancer-derived cell line. It was maintained in a Ham's F12 K medium (Gibco) and supplemented with 7% FBS.
(§5) A375 is a human malignant melanoma-derived cell line. It was maintained in a Dulbecco's modified Eagle's medium (DMEM, Hyclone) and supplemented with 10% FBS, 4 mM L-glutamine, 4.5 g/l glucose, and 1.0 mM sodium pyruvate.
(§6) A549 is a human lung cancer-derived cell line. It was maintained in a F12K medium (Gibco) and supplemented with 10% FBS.
To determine the cytotoxicity of Compound 1 or uridine on each cancer cell lines, ES-2, COLO205, PC-3, A375, and A549 cell lines were used. Each cancer cell line at a concentration of 1×10^4 cells/100 μl in each well (Falcon, MicroTest™ 96) was exposed to Compound 1, uridine or 1 μM paclitaxel (taxol, Sigma) for 72 hours in a complete medium. The Compound 1 and uridine were serially two-fold diluted from the concentration of 0.258 mg/ml.
Cellular viability was estimated by the tetrazolium dye reduction assay (XTT assay, Boehringer Mannheim). The amount of XTT reagent (a tetrazolium salt) added to the bottom wells was 100 μl/well and its concentration was 1 mg/ml. The-wells were incubated for 4 hours to allow viable cells to develop color. Absorbance (O.D.) was measured at 450 nm with the reference wavelength at 690 nm.

[4] = test system: COLO205, PC-3, A375, A549 cell lines; experiment: Invasive/metastatic potential of cancer cells, Boyden chemotaxis assay chambers, other four cell lines; format: cell-based, human; conditions: same concentration ranges as ES-2, data not shown
Procedure: as §3, §4, §5, §6, §2
0.35 ml of a medium with complete nutrition supplements as a chemo-attractant was added to each bottom well. Cancer cells (2×10^5 in 50 μl) were then plated on the filters in each of the top chambers. […]
After an 18-hour incubation, the cells in the top chambers were carefully emptied with sterile cotton buds. […] After incubating for 4 hours, absorbance (O.D.) was measured at 450 nm with the reference wavelength at 690 nm. […]

[5] = biological target: T1, MMP-2 (Homo sapiens, UniProt P08253); experiment: Inhibition of MMP-2 gelatinase activity on microtiter plates (biotinylated gelatin hydrolysis); format: biochemical
T1 construct: The purified enzyme was already an active form with a molecular weight of about 64K; endogenous in cells; host or cells: ES-2 human ovarian carcinoma cells (secreted into serum-free conditioned medium; purified on gelatin-Sepharose 4B)
T1 sequence (P08253 110-660): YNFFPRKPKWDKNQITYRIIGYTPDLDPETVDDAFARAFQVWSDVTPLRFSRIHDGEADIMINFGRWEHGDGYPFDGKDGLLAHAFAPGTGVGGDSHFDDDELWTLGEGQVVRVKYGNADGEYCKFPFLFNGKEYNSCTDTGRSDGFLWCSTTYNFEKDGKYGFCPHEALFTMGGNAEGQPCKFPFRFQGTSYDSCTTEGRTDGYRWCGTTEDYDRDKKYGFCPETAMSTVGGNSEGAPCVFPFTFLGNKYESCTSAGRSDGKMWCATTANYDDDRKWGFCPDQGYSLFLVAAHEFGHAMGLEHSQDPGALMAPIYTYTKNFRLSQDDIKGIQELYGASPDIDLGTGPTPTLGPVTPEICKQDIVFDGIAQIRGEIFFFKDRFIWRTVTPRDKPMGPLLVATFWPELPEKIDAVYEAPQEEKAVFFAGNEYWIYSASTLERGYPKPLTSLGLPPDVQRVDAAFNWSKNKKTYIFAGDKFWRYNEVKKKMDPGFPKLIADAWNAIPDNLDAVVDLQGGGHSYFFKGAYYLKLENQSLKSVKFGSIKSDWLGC
Procedure: The MMP-2 enzyme was obtained from cancer cells and then purified by using gelatin-Sephose 4B (Pharmacia). Serum-free conditioned medium from human ovarian carcinoma cells, ES-2, was concentrated 50-fold and then MMP-2 enzyme was obtained by ultrafiltration using a 30,000 MW (molecular weight) cut-off membrane (YM-30, Amicon). The affinity matrix was equilibrated with an equilibration buffer, which was composed of 50 mM Tris.HCl (pH7.6), 10 mM EDTA and 0.01% Tween 20, containing 0.5 M NaCl. After extensive washing with the equilibration buffer containing 0.5 M NaCl, the bound enzyme was eluted with the equilibration buffer containing 1 M NaCl. […]
The plates were then read at 450 nm (reference length 470 nm) in a microtiter plate reader (Dynex, MRX). The absorbance at 450 nm […] as the concentration of MMP-2 […]. […] Therefore, in the reaction of BG with MMP-2, the absorbance should be a factor 3-5 times lower than an absorbance reading of BG without MMP-2 enzyme (a gelatinase). […]
The effect of Compound 1 on MMP-2 activity was measured by basically the same procedure as described in the section, GELATINASE ASSAY ON MICROTITER PLATES. As Compound 1 was similar to uridine in chemical structure, the effect of a commercial available uridine (Sigma, U-3750, D-Ribose) on MMP-2 activity was also measured for comparison in the experiment. […]

Sequence of TNFα binding to TNFα-RI (P01375 77-233 limits assumed): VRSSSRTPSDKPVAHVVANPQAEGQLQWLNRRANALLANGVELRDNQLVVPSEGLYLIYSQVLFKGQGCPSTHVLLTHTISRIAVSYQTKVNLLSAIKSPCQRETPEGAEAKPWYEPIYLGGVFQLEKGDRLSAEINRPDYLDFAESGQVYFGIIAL
Sequence of TNFα binding to TNFα-RI (P19438 22-211 limits assumed): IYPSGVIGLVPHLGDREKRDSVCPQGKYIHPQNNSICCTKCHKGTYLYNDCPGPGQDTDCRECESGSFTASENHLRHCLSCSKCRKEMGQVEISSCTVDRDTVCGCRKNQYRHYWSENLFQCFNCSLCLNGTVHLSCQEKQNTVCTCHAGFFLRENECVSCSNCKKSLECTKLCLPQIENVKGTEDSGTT

Row | SMILES | inhibition activity on TNFα binding to TNFα-RI compared with Suramin ([1]; FIG. 6, Suramin as comparative compound) | pIC50 ([1]; biotinylated TNFα 0.5 μg/ml mixed 1:1 with compound, TNFα-RI coated plate, read-out: 50% inhibitory dose (IC50) on TNFα binding to TNFα-RI) | IC50 ([2]; Homo sapiens, XTT readout of bottom wells, read-out: 50% inhibitory dose (IC50) on invasive potential) | pIC50 ([2]; Homo sapiens, printed conversion of 23 μg/ml, read-out: 50% inhibitory dose (IC50) on invasive potential, converted to molar) | cellular viability (XTT assay) [3] | effect on invasive potential [4] | pIC50 ([5]; purified MMP-2 from ES-2 conditioned medium, biotinylated gelatin substrate, read-out: 50% inhibitory dose (IC50) on MMP-2 activity) | inhibition of cell proliferation (XTT assay) ([3]; paclitaxel positive control) | effect on invasive potential ([2]; data not shown) | inhibitory activity to MMP-2 ([5]; at the concentration of 0.82 mM, data not shown)
1 | O=c1ccn(C2OC(CCO)C(O)C2O)c(=O)[nH]1 (stereo not drawn) [Compound 1, 1-[3,4-dihydroxy-5-(2-hydroxyethyl)tetrahydrofuran-2-yl]pyrimidine-2,4(1H,3H)-dione] | smaller than that of Suramin | 4.30 | 23 µg/mL | 4.05 | did not reduce cellular viability | not significantly affected | 3.82 |  |  | 
2 | CC(=O)O[C@H]1C(=O)[C@@]2(C)[C@H]([C@H](OC(=O)c3ccccc3)[C@]3(O)C[C@H](OC(=O)[C@H](O)[C@@H](NC(=O)c4ccccc4)c4ccccc4)C(C)=C1C3(C)C)[C@]1(OC(C)=O)CO[C@@H]1C[C@@H]2O [paclitaxel] |  |  |  |  |  |  |  | inhibition of cell proliferation was proportional to the concentration of paclitaxel |  | 
3 | O=c1ccn([C@@H]2O[C@H](CO)[C@@H](O)[C@H]2O)c(=O)[nH]1 [uridine, reference compound] |  |  |  |  | did not reduce cellular viability | did not show any effect |  |  | did not show any effect | no inhibitory activity
